Data published in ChEMBL document CHEMBL1129192, “D-Phe-Pro-p-Amidinobenzylamine: A potent and highly selective thrombin inhibitor” (Bioorg Med Chem Lett, 1996).
Where a SMILES comes first, the peptide text is derived from it.

Experiment: Ratio of Thrombin Kass/Urokinase Kass

Compared with `N=C(N)c1ccc(CNC(=O)[C@@H]2CCCN2C(=O)[C@H](N)Cc2ccccc2)cc1`, `NC(N)=NCCCCNC(=O)[C@@H]1CCCN1C(=O)[C@H](N)Cc1ccccc1` (HELM PEPTIDE1{[dF].P.[N=C(N)NCCCCN[*:1]]}$$$$V2.0) is lower in Selectivity: 400000 for the first, 31000 for the second.

`NC(N)=NCCC[C@@H](C=O)NC(=O)[C@@H]1CCCN1C(=O)[C@H](N)Cc1ccccc1` showed a Selectivity of 13000.

Experiment: Ratio of Thrombin Kass/plasmin Kass

Compared with `N=C(N)c1ccc(CNC(=O)[C@@H]2CCCN2C(=O)[C@H](N)Cc2ccccc2)cc1`, `NC(N)=NCCCCNC(=O)[C@@H]1CCCN1C(=O)[C@H](N)Cc1ccccc1` (HELM PEPTIDE1{[dF].P.[N=C(N)NCCCCN[*:1]]}$$$$V2.0) is lower in Selectivity: 26000 for the first, 4600 for the second.

Work on `NC(N)=NCCC[C@@H](C=O)NC(=O)[C@@H]1CCCN1C(=O)[C@H](N)Cc1ccccc1` yielded a Selectivity of 390.

Experiment: Ratio of Thrombin Kass/tissue plasminogen activator Kass

First: N=C(N)c1ccc(CNC(=O)[C@@H]2CCCN2C(=O)[C@H](N)Cc2ccccc2)cc1
Second: NC(N)=NCCCCNC(=O)[C@@H]1CCCN1C(=O)[C@H](N)Cc1ccccc1 (HELM PEPTIDE1{[dF].P.[N=C(N)NCCCCN[*:1]]}$$$$V2.0)
The Selectivity of the first is higher: 170000 for the first, 920 for the second.

Compound `NC(N)=NCCC[C@@H](C=O)NC(=O)[C@@H]1CCCN1C(=O)[C@H](N)Cc1ccccc1` has a Selectivity of 1800.

Experiment: Ratio of Thrombin Kass/trypsin Kass

Compared with `N=C(N)c1ccc(CNC(=O)[C@@H]2CCCN2C(=O)[C@H](N)Cc2ccccc2)cc1`, `NC(N)=NCCCCNC(=O)[C@@H]1CCCN1C(=O)[C@H](N)Cc1ccccc1` (HELM PEPTIDE1{[dF].P.[N=C(N)NCCCCN[*:1]]}$$$$V2.0) is lower in Selectivity: 130 for the first, 33 for the second.

`NC(N)=NCCC[C@@H](C=O)NC(=O)[C@@H]1CCCN1C(=O)[C@H](N)Cc1ccccc1` showed a Selectivity of 5.1.
